Source: ChEMBL document CHEMBL1201862, “PubChem BioAssay data set” (2004)
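Five concentrations, 48 hours, 96-well plates. GI50 is the concentration that inhibits growth by half.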 Activity calls are given as the source filed them. No stated cut-off is given here; in the data, active = GI50 up to about 1.1 µM and inactive = higher.

Tests used:
Assay in all cases: NCI tumour cell line growth inhibition, 48 h
[1] = tested on: HCT-15
[2] = tested on: HOP-62
[3] = tested on: CAKI-1
[4] = tested on: MDA-MB-231
[5] = tested on: OVCAR-8
[6] = tested on: PC-3
[7] = tested on: RXF 393
[8] = tested on: SK-OV-3
[9] = tested on: LOX IMVI
[10] = tested on: HCT-116
[11] = tested on: HOP-92
[12] = tested on: U-251
[13] = tested on: NCI-H226
[14] = tested on: Malme-3M
[15] = tested on: CCRF-CEM
[16] = tested on: SK-MEL-28
[17] = tested on: SK-MEL-5
[18] = tested on: RPMI-8226
[19] = tested on: IGROV-1
[20] = tested on: NCI-H23

| Structure (SMILES) | GI50 [1] [µM] | GI50 [2] | GI50 [3] | GI50 [4] | GI50 [5] | GI50 [6] | GI50 [7] | GI50 [8] | GI50 [9] | GI50 [10] | GI50 [11] | GI50 [12] | GI50 [13] | GI50 [14] | GI50 [15] | GI50 [16] | GI50 [17] | GI50 [18] | GI50 [19] | GI50 [20] |
| --- | --- | --- | --- | --- | --- | --- | --- | --- | --- | --- | --- | --- | --- | --- | --- | --- | --- | --- | --- | --- |
| CCCCCCc1cc2cc(-c3cn4ccccc4n3)c(=O)oc2cc1O | 5.66 | 11.8 µM (inactive) | 4.67 µM (inactive) | 3.27 µM (inactive) | 6.3 µM (inactive) | 18.7 µM (inactive) | 4.14 µM (inactive) | 13.6 µM (inactive) | 4.72 µM (inactive) | 4.55 µM (inactive) | 15.5 µM (inactive) | 3.56 µM (inactive) | 19.1 µM (inactive) | 1.71 µM (inactive) | 19.5 µM (inactive) | 9.14 µM (inactive) | 8.95 µM (inactive) | 3.68 µM (inactive) | 11.2 µM (inactive) | 5.66 µM (inactive) |
| CC(=O)OCC1OC(O[C@@H]2c3c(O)c4c(c(O)c3C3=C(NN(c5ccc([N+](=O)[O-])cc5[N+](=O)[O-])[Se]3=O)[C@@]2(C)O)C(=O)c2ccccc2C4=O)C(OC(C)=O)C(OC(C)=O)C1OC(C)=O (stereo not given in full) | 0.211 | 0.189 µM (active) | 0.274 µM (active) | 0.346 µM (active) | 0.191 µM (active) | 0.261 µM (active) | 0.31 µM (active) | 0.281 µM (active) | 0.147 µM (active) | 0.141 µM (active) | 0.451 µM (active) | 0.14 µM (active) | 0.31 µM (active) | 0.157 µM (active) | 0.0352 µM (active) | 0.242 µM (active) | 0.2 µM (active) | 0.16 µM (active) | 0.303 µM (active) | 0.251 µM (active) |
| CN1CCc2c(sc3ncn(C)c(=N)c23)C1 | > 100 | > 100 µM (inactive) | > 100 µM (inactive) | > 100 µM (inactive) | > 100 µM (inactive) | > 100 µM (inactive) | > 100 µM (inactive) | > 100 µM (inactive) | > 100 µM (inactive) | > 100 µM (inactive) | > 100 µM (inactive) | > 100 µM (inactive) | > 100 µM (inactive) | > 100 µM (inactive) | > 100 µM (inactive) | > 100 µM (inactive) | > 100 µM (inactive) | > 100 µM (inactive) | > 100 µM (inactive) | > 100 µM (inactive) |
| COc1ccc(NC/C=C/C(=C/COC(C)=O)OC(C)=O)cc1 | 2.41 | 2.42 µM (inactive) | 1.89 µM (inactive) | 1.78 µM (inactive) | 4.23 µM (inactive) | 2.28 µM (inactive) | 1.6 µM (inactive) | 14.9 µM (inactive) | 2.13 µM (inactive) | 1.81 µM (inactive) | 1.8 µM (inactive) | 2.44 µM (inactive) | 19.3 µM (inactive) | 2.34 µM (inactive) | 1.77 µM (inactive) | 1.87 µM (inactive) | 15.3 µM (inactive) | 0.252 µM (active) | 1.8 µM (inactive) | 2.06 µM (inactive) |
| C=CC1(CBr)CCC(C(C)(C)Br)O1 (stereo not given) | 6.64 | 15.9 µM (inactive) | 7.23 µM (inactive) | 13.2 µM (inactive) | 2.9 µM (inactive) | 12 µM (inactive) | 13.7 µM (inactive) | 14.5 µM (inactive) | 1.74 µM (inactive) | 6.64 µM (inactive) | 14.9 µM (inactive) | 6.27 µM (inactive) | 21 µM (inactive) | 13.7 µM (inactive) | 2.08 µM (inactive) | 7.73 µM (inactive) | 9.86 µM (inactive) | 1.79 µM (inactive) | 8.13 µM (inactive) | 6.98 µM (inactive) |
| CCOC(=O)CN1C(=O)c2ccc(NC(=O)C(=O)O)cc2S1(=O)=O | > 100 | > 100 µM (inactive) | > 100 µM (inactive) | > 100 µM (inactive) | > 100 µM (inactive) | > 100 µM (inactive) | > 100 µM (inactive) | > 100 µM (inactive) | > 100 µM (inactive) | > 100 µM (inactive) | > 100 µM (inactive) | > 100 µM (inactive) | > 100 µM (inactive) | > 100 µM (inactive) | > 100 µM (inactive) | > 100 µM (inactive) | > 100 µM (inactive) | > 100 µM (inactive) | > 100 µM (inactive) | > 100 µM (inactive) |
| c1csc(-c2cscc2-c2ccsc2)c1 | 30.3 | 42.3 µM (inactive) | > 95.3 µM (inactive) | > 100 µM (inactive) | 98.2 µM (inactive) | > 43.8 µM (inactive) | 20.9 µM (inactive) | 47.4 µM (inactive) | 41.1 µM (inactive) | 41.2 µM (inactive) | > 86.5 µM (inactive) | > 100 µM (inactive) | > 43.5 µM (inactive) | 20.9 µM (inactive) | 41.8 µM (inactive) | > 100 µM (inactive) | 75.9 µM (inactive) | 34 µM (inactive) | 68.9 µM (inactive) | 35.3 µM (inactive) |
| O=C1C(Cl)=C(NCCO)C(=O)c2c(O)ccc(O)c21 | 2.53 | 3.28 µM (inactive) | > 10 µM (inactive) | 1.95 µM (inactive) | 3.84 µM (inactive) | 2.78 µM (inactive) | 1.96 µM (inactive) | > 10 µM (inactive) | 1.64 µM (inactive) | 1.95 µM (inactive) | > 10 µM (inactive) | 6.27 µM (inactive) | > 10 µM (inactive) | 1.4 µM (inactive) | 4.14 µM (inactive) | 1.92 µM (inactive) | 1.41 µM (inactive) | 3.12 µM (inactive) | 2.49 µM (inactive) | 2.6 µM (inactive) |
| COc1c(-c2nc3ccc(N4CCN(C)CC4)cc3[nH]2)cc(OC)c2[nH]c(CO)nc12 | > 100 | 92.9 µM (inactive) | > 100 µM (inactive) | 74 µM (inactive) | > 100 µM (inactive) | > 100 µM (inactive) | > 100 µM (inactive) | > 100 µM (inactive) | 88.5 µM (inactive) | 58.6 µM (inactive) | > 100 µM (inactive) | 74.8 µM (inactive) | > 100 µM (inactive) | > 100 µM (inactive) | 13.3 µM (inactive) | > 100 µM (inactive) | > 100 µM (inactive) | > 100 µM (inactive) | > 100 µM (inactive) | > 100 µM (inactive) |
| CC12CC3(O)OC(O1)C1(COC(=O)c4ccccc4)C3CC21OC1OC(CO)C(O)C(O)C1O (stereo not given) | > 100 | > 100 µM (inactive) | > 100 µM (inactive) | > 100 µM (inactive) | > 100 µM (inactive) | > 100 µM (inactive) | > 100 µM (inactive) | > 100 µM (inactive) | > 100 µM (inactive) | > 100 µM (inactive) | > 100 µM (inactive) | > 100 µM (inactive) | > 100 µM (inactive) | > 100 µM (inactive) | > 100 µM (inactive) | > 100 µM (inactive) | > 100 µM (inactive) | > 100 µM (inactive) | > 100 µM (inactive) | > 100 µM (inactive) |
| CN(Cc1ccccc1)Cn1ccnc1 | 59.4 | > 100 µM (inactive) | > 100 µM (inactive) | > 56 µM (inactive) | > 100 µM (inactive) | > 75.9 µM (inactive) | > 100 µM (inactive) | > 100 µM (inactive) | > 88.3 µM (inactive) | 39.4 µM (inactive) | 25.7 µM (inactive) | > 71 µM (inactive) | > 100 µM (inactive) | 24.9 µM (inactive) | 32.2 µM (inactive) | 34.1 µM (inactive) | 37.9 µM (inactive) | 29.2 µM (inactive) | 36.2 µM (inactive) | > 85.5 µM (inactive) |
| C=C(CN(C)C)C(=O)c1ccccc1 | 10.2 | 32.9 µM (inactive) | 4.75 µM (inactive) | 15.1 µM (inactive) | 19.5 µM (inactive) | 16 µM (inactive) | 2.33 µM (inactive) | 21.7 µM (inactive) | 7.93 µM (inactive) | 5.51 µM (inactive) | 2.06 µM (inactive) | 18.7 µM (inactive) | 18.3 µM (inactive) | 2.41 µM (inactive) | 0.631 µM (active) | 16.5 µM (inactive) | 15.2 µM (inactive) | 4.13 µM (inactive) | 18.8 µM (inactive) | 19.4 µM (inactive) |
| CCOC(=O)Nc1nc2cc(Cn3cccc3)ccc2[nH]1 | 0.986 | 1.36 µM (inactive) | 0.873 µM (active) | 1.57 µM (inactive) | 2.39 µM (inactive) | 0.399 µM (active) | 4.03 µM (inactive) | 1.5 µM (inactive) | 2.55 µM (inactive) | 1.02 µM (active) | 32.2 µM (inactive) | 1.2 µM (inactive) | 15.8 µM (inactive) | 1.09 µM (active) | 0.581 µM (active) | 4.89 µM (inactive) | 0.51 µM (active) | 0.925 µM (active) | 1.85 µM (inactive) | 4.82 µM (inactive) |
| c1ccc2c(OCC3CO3)ccc(OCC3CO3)c2c1 (stereo not given) | 3.85 | 3.03 µM (inactive) | 1.74 µM (inactive) | 10.5 µM (inactive) | 2.2 µM (inactive) | 4.76 µM (inactive) | 2.63 µM (inactive) | 12.6 µM (inactive) | 0.515 µM (active) | 1.36 µM (inactive) | 5.57 µM (inactive) | 2.32 µM (inactive) | 12.1 µM (inactive) | 7.13 µM (inactive) | 0.27 µM (active) | 9.98 µM (inactive) | 6.64 µM (inactive) | 3.04 µM (inactive) | 3.44 µM (inactive) | 2.51 µM (inactive) |
